# Results: patent publication US12539281B2 (priority 2021, dated 2026)
# How the values were obtained:
# [1] = test system: blood-brain barrier (BBB); assay: IA ethyl alcohol, NEO100 or mannitol mediated BBB disruption, extravasated EB dye in perfused mouse brain (Experiments 1-3); format: in vivo, mice; conditions: for EB dye / EB dye penetration level / Patchy, or punctate pattern of EB dye: perfused mouse brain
# Description: The method of IA and IC injection is similar to the IV push in the clinic, which comprises essentially the steps of: • pushing the injection composition at a particular infusion flow rate immediately after the placement of the IA catheter into the internal carotid artery (ICA) or the insertion of the injection needle into the left ventricle via the ultrasound-guided intracardiac (IC) puncture at room temperature.
# When performing the IA and IC injections, the infusion flow rate is about 5-7 μl/second (0.3-0.45 ml/min), the infusion volume is about […] of the body weight (at 1 μl/g, volume/weight ratio), and USP purified water or sodium chloride is used to reconstitute varied EA solutions at room temperature.
# Intracardiac injection of NEO100 or EA can be carried out through the procedure of ultrasound-guided intracardiac (IC) injection. […] The mouse is anesthetized in an induction chamber using 2-3% isoflurane in 100% oxygen at a rate of 0.2-0.5 L/min. Fur over the thorax area is removed and the animal is placed in a stereotactic frame in supine position, securing the upper and lower limbs to avoid body movement. The ultrasound transducer is placed above the chest of the animal, and the injection syringe is anchored to a platform to avoid erratic needle movements. An electrocardiogram monitor is used to monitor heart function during the intracardiac injection.
# EB dye is used as the non-BBB permeable substance.
# Photographs of the perfused brain tissues of the experimental mice after treatment are taken.
# Extravasated EB dye is used as the non-BBB permeable substance.
# [2] = test system: blood-brain barrier (BBB); assay: Microcatheter 3% EA-mediated delivery of CD3-positive CAR T cells, confocal imaging (Experiment 26); format: in vivo; conditions: microcatheter 3% EA + 2×10^6 CAR T cells, normal rat
# Description: Similarly, the efficacy of microcatheter placement and infusion of an optimal 3% EA-mediated delivery of CAR T cells is validated. The CAR T cells are human CD3 positive, which can be analyzed by immunohistochemistry staining using rabbit anti-human CD3 primary antibody and Alexa Fluor 647-labeled goat anti-rabbit IgG secondary antibody to detect CD3 expression on the surface of CAR T cells by confocal imaging, as shown in FIG. 19. […] The confocal imaging staining is performed to detect the spreading of CD3-positive CAR T cells. The blue color comes from the DAPI-stained nuclei. The red color is Alexa Fluor 647-labeled […], as only the human CAR T cells are CD3 positive.
# [3] = test system: blood-brain barrier (BBB); conditions: 300 μl 3% EA via microcatheter in left ICA, IV 2% EB at 30 min intervals, rats
# Description: Evans blue (EB) dye is used as the non-BBB permeable substance.
# In this experiment, the microcatheter is placed in the left internal carotid artery (ICA). The left internal carotid artery (ICA) leads to the left hemisphere of the brain. (That is, the selected intracerebral artery is the left internal carotid artery (ICA); and the target area is the left hemisphere of the brain.)
# [4] = test system: blood-brain barrier (BBB); assay: Intraarterial EA-mediated antibody delivery into normal rat brain via left internal carotid artery catheter (Experiments 15-17); format: in vivo, rats
# Description: The experimental rat is treated with IA 3% EA+50 μg goat anti-rat IgG (H+L) ALEXA FLUOR® 647 (ab150167, Cambridge, MA USA) via the left internal carotid artery catheter. The micrograph of the whole brain section is scanned with a fluorescence microscope. Two sections from the right and left hemispheres of the brain are selected respectively and are enlarged with a magnification of 63×. The scale bar used is 50 μm. The images of the left and right hemispheres, and the enlarged sections are studied.
# EA-mediated antibody (goat anti-rat IgG (H+L) ALEXA FLUOR® 647) brain entry via catheter placement through the internal carotid artery (left) are tested. The cryosection photographs and images from the confocal microscope after EA treatment are taken for studies. An EA-untreated group is used as a control group. IA antibody [50 μg goat anti-rat IgG (H+L) ALEXA FLUOR® 647] and IA 3% EA+antibody [50 μg goat anti-rat IgG (H+L) ALEXA FLUOR® 647 are the two comparison groups.
# An ALEXA FLUOR® 647 anti-human IgG antibody was applied via IA catheter delivery to rule out the nonspecific binding to the experimental rats. 3% EA-mediated antibody brain entry via catheter placement through the internal carotid artery (left) is tested and compared. The cryosection photographs and images from the confocal microscope after EA treatment are taken for studies. An EA-untreated group is used as a control group. IA antibody [50 μg ALEXA FLUOR® 647 anti-human IgG antibody (ab201841); and IA 3% EA+50 μg ALEXA FLUOR® 647 anti-human IgG antibody (ab201841, Cambridge, MA USA) are the two comparison groups.
# [5] = test system: blood-brain barrier (BBB); conditions: group B: 300 μl 3% EA infused in 5 seconds, room temperature
# [6] = Comparison of the toxicity of IA NEO100 and IA EA (Experiment 21)
# Description: The safety profile of IA 0.3% NEO100 vs. IA 0.3% EA are compared. […] There are 15 experimental mice in each testing group. The potential adverse effects are evaluated.
# [7] = test system: blood-brain barrier (BBB); assay: Comparison of intracardiac EA and NEO100 mediated BBB opening, EB dye (Comparative Experiment 19, Experiment 20); format: in vivo, mice; conditions: mice
# Description: Intracardiac injected various concentrations of EA (at 25%, 20%, 3%, 0.3%, and 0.1%, 0.03%, 0.01%) and NEO100 (at 25%, 20%, 3%, 0.3%, and 0.1%, 0.03%, 0.01%) are used on mice to test their effects on BBB disruption and evaluated by the observation of extravasated EB dye in the brain tissues. […] Photographs of the perfused brain tissues from the experimental mice treated with […] EA and NEO100 are taken for observation and comparison.
# The same procedure as experiment 19 was performed with IA 0.3% NEO100 with 2% EB dye solution.
# [8] = IA injection 0.3%, 15 mice per group, number of mice
compound,measurement,setting,value
CCO [ethyl alcohol],spread of EB dye inside the brain tissues,"[1]; IA EA at 0.3%, 1%, and 3%, mice, superior and sagittal views","homogenized, evenly spread EB dye inside the brain tissues is observed"
same,EB dye,[1]; IA agent at 0.1%,Observed
same,EB dye penetration level,[1]; IA agent at 0.1%,Widely
same,"Patchy, or punctate pattern of EB dye",[1]; IA agent at 0.1%,Not
same,EB dye,[1]; IA agent at 0.3%,Observed
same,EB dye penetration level,[1]; IA agent at 0.3%,Widely
same,"Patchy, or punctate pattern of EB dye",[1]; IA agent at 0.3%,Not
same,EB dye,[1]; IA agent at 3%,Observed
same,EB dye penetration level,[1]; IA agent at 3%,Widely
same,"Patchy, or punctate pattern of EB dye",[1]; IA agent at 3%,Not
same,EB dye,[1]; IA agent at 5%,Observed
same,EB dye penetration level,[1]; IA agent at 5%,Widely
same,"Patchy, or punctate pattern of EB dye",[1]; IA agent at 5%,Not
same,delivery of CAR T cells into brain tissue,[2],can deliver BBB-impermeable CAR T cells into normal rat brain tissue
same,time until disrupted BBB is restored,[3],around 2 hours
same,"antibody staining (pink color) in brain, confocal","[4]; IA 3% EA+50 μg ALEXA FLUOR 647 anti-human IgG antibody, rats",even and widely spread pink color
same,"antibody staining (pink color) in brain, confocal","[4]; IA 3% EA+50 μg goat anti-rat IgG (H+L) ALEXA FLUOR 647, rats",even and widely spread pink color
same,"fluorescence of labeled antibody, left hemisphere vs right hemisphere","[4]; IA 3% EA+50 μg goat anti-rat IgG (H+L) ALEXA FLUOR 647 via left ICA catheter, rat",more dense fluorescence than the right hemisphere
same,EB (induced BBB disruption),[5],observed
same,tested animals that experienced adverse effects,"[6]; IA injection 0.3%, 15 mice per group",less than 50%
same,Immediate Sudden Death,[6]; [8],0
same,Intermediate-lasting epilepsy post-injection leading to death,[6]; [8],0
same,Long-lasting epilepsy post-injection leading death,[6]; [8],0
same,Moderate-lasting epilepsy post-injection and survival to fully recovery,[6]; [8],3
same,"Transient, mild, or occasional epilepsy post-injection and survival to fully recovery",[6]; [8],3
same,Mortality,"[6]; IA injection 0.3%, 15 mice per group, listed as EA",0%
same,overall mortality rate,[6]; repeated comparative experiments of IA EA and IA NEO100,less than or equal to 1%
same,"pattern of BBB opening, coronal section",[7]; IA 0.1% EA,homogenized BBB opening
same,dose response of BBB disruption,"[7]; intracardiac 25%, 20%, 3%, 0.3%, 0.1%, 0.03%, 0.01%",dose-reverse response
